Results published in patent US20180119123A1, “CRISPR/CAS-RELATED METHODS AND COMPOSITIONS FOR TREATING HIV INFECTION AND AIDS” (EDITAS MEDICINE, INC., priority 2015, published 2018).

Legend:
[1] = system: human mobilized peripheral blood CD34^+ HSCs; assay: Fold change in CD34+ cell number (trypan blue count) 96 hours after Nucleofection; type: cell-based; conditions: Nucleofection with wild type Cas9 and CCR5-U43 gRNA plasmid DNA + vehicle treatment (no UM171)
Method: (§1) Human CD34^+ HSCs cells from mobilized peripheral blood (AllCells) were thawed into StemSpan Serum-Free Expansion Medium (SFEM™, StemCell Technologies) containing 100 ng/mL each of the following cytokines: human stem cell factor (SCF), thrombopoietin (TPO), and flt-3 ligand (FL) (all from Peprotech). Cells were grown for 3 days in a humidified incubator and 5% CO2 20% O2. […] The published use of UM171 involved prolonged exposure of HSCs to the small molecule for ex vivo expansion of HSCs. In the current experiment, HSCs were exposed to UM171 for 2 hours before and 24 hours after delivery of Cas9 and gRNA plasmid DNA. This UM171 treatment protocol was based on pilot studies performed by the inventors that indicated acute pre-treatment with UM171 before lentivirus vector mediated gene delivery improved HSC viability compared to HSCs treated with vehicle (dimethylsulfoxide, DMSO, Sigma) alone. […] At 96 hours after Nucleofection™, CD34^+ cells were counted for by trypan blue exclusion and divided into 3 portions for the following analyses: a) flow cytometry analysis for assessment of viability by co-staining with 7-Aminoactinomycin-D (7-AAD) and allophycocyanin (APC)-conjugated Annexin-V antibody (ebioscience); b) flow cytometry analysis for maintenance of HSC phenotype (after co-staining with phycoerythrin (PE)-conjugated anti-human CD34 antibody and fluorescein isothicyanate (FITC)-conjugated anti-human CD90, both from BD Bioscience; c) hematopoietic colony forming cell (CFC) analysis by plating 1500 cells in semi-solid methylcellulose based Methocult medium (StemCell Technologies) that supports differentiation of erythroid and myeloid blood cell colonies from HSCs and serves as a surrogate assay to evaluate HSC multipotency and differentiation potential ex vivo; d) genomic DNA analysis for detection of editing at the CCR5 locus. […]

[2] = system: human mobilized peripheral blood CD34^+ HSCs; assay: Viability by 7-AAD / Annexin-V flow cytometry 96 hours after Nucleofection; type: cell-based; conditions: Nucleofected with Cas9 and CCR5 gRNA plasmids after pre-treatment with UM171; 96 hours
Method: as §1

[3] = system: human mobilized peripheral blood CD34^+ HSCs; assay: Maintenance of HSC phenotype (CD34/CD90 co-staining, flow cytometry); type: cell-based; conditions: Cas9 and CCR5 gRNA plasmids after pre-treatment with UM171; 96 hours
Method: Human CD34^+ HSCs cells from mobilized peripheral blood (AllCells) were thawed into StemSpan Serum-Free Expansion Medium (SFEM™, StemCell Technologies) containing 100 ng/mL each of the following cytokines: human stem cell factor (SCF), thrombopoietin (TPO), and flt-3 ligand (FL) (all from Peprotech). Cells were grown for 3 days in a humidified incubator and 5% CO2 20% O2. […] The published use of UM171 involved prolonged exposure of HSCs to the small molecule for ex vivo expansion of HSCs. In the current experiment, HSCs were exposed to UM171 for 2 hours before and 24 hours after delivery of Cas9 and gRNA plasmid DNA. This UM171 treatment protocol was based on pilot studies performed by the inventors that indicated acute pre-treatment with UM171 before lentivirus vector mediated gene delivery improved HSC viability compared to HSCs treated with vehicle (dimethylsulfoxide, DMSO, Sigma) alone. After the 2-hour pretreatment with UM171, 1 million […] HSCs were Nucleofected™ with the Amaxa™ 4D Nucleofector™ device (Lonza), Program EO100 using components of the P3 Primary Cell 4D-Nucleofector Kit™ (Lonza) according to the manufacturer's instructions. […]

CD34^+ HSCs = assay: Hematopoietic colony forming cell (CFC) assay in Methocult medium; type: cell-based, human; conditions: Nucleofection with wild-type Cas9 and CCR5-U43 gRNA plasmid DNA + vehicle (no UM171); two weeks
Method: Human CD34^+ HSCs cells from mobilized peripheral blood (AllCells) were thawed into StemSpan Serum-Free Expansion Medium (SFEM™, StemCell Technologies) containing 100 ng/mL each of the following cytokines: human stem cell factor (SCF), thrombopoietin (TPO), and flt-3 ligand (FL) (all from Peprotech). Cells were grown for 3 days in a humidified incubator and 5% CO2 20% O2. […] The published use of UM171 involved prolonged exposure of HSCs to the small molecule for ex vivo expansion of HSCs. In the current experiment, HSCs were exposed to UM171 for 2 hours before and 24 hours after delivery of Cas9 and gRNA plasmid DNA. This UM171 treatment protocol was based on pilot studies performed by the inventors that indicated acute pre-treatment with UM171 before lentivirus vector mediated gene delivery improved HSC viability compared to HSCs treated with vehicle (dimethylsulfoxide, DMSO, Sigma) alone. After the 2-hour pretreatment with UM171, 1 million […] HSCs were Nucleofected™ with the Amaxa™ 4D Nucleofector™ device (Lonza), Program EO100 using components of the P3 Primary Cell 4D-Nucleofector Kit™ (Lonza) according to the manufacturer's instructions. Briefly, one million cells were suspended in Nucleofector™ solution and the following amounts of plasmid DNA were added to the cell suspension: 1250 ng plasmid expressing CCR5 gRNA (CCR5-U43) from the human U6 promoter and 3750 ng plasmid expressing wild-type S. pyogenes Cas 9 transcriptionally regulated by the CMV promoter. After Nucleofection™, cells were plated into Stemspan-SFEM™ supplemented with SCF, TPO, FL and 40 nM UM171. After overnight incubation, HSCs were plated in Stemspan-SFEM™ plus cytokines without UM171. At 96 hours after Nucleofection™, CD34^+ cells were counted for by trypan blue exclusion and divided into 3 portions for the following analyses: a) flow cytometry analysis for assessment of viability by co-staining with 7-Aminoactinomycin-D (7-AAD) and allophycocyanin (APC)-conjugated Annexin-V antibody (ebioscience); b) flow cytometry analysis for maintenance of HSC phenotype (after co-staining with phycoerythrin (PE)-conjugated anti-human CD34 antibody and fluorescein isothicyanate (FITC)-conjugated anti-human CD90, both from BD Bioscience; c) hematopoietic colony forming cell (CFC) analysis by plating 1500 cells in semi-solid methylcellulose based Methocult medium (StemCell Technologies) that supports differentiation of erythroid and myeloid blood cell colonies from HSCs and serves as a surrogate assay to evaluate HSC multipotency and differentiation potential ex vivo; d) genomic DNA analysis for detection of editing at the CCR5 locus. Genomic DNA was extracted from HSCs 96 hours after Nucleofection™, and CCR5 locus-specific PCR reactions were performed.
To evaluate maintenance of HSC potency and differentiation potential, two weeks after plating CD34^+ HSCs in CFC assays, hematopoietic activity was quantified based on scoring the HSC progeny by enumerating the total number of hematopoietic colony forming units (CFU) and the frequencies of specific blood cell phenotypes, including: mixed myeloid/erythroid (Granulocyte-erythroid-monocyte macrophage, CFU-GEMM), myeloid (CFU-macrophage (M), granulocyte-macrophage (CFU-GM)) and erythroid (CFU-E) colonies. CD34^+ HSCs that were Nucleofected™ after UM171 pre-treatment maintained CFC potential compared to un-Nucleofected™ HSCs (Table 12). In contrast, CD34^+ HSCs that were Nucleofected™ without UM171 pre-treatment had reduced CFC potential (lower total CFC counts and reduced numbers of mixed-phenotype colonies (CFU-GEMM) and erythroid colonies (CFU-E)) in comparison to un-Nucleofected™ CD34^+ HSCs.
Human CD34^+ HSCs cells from mobilized peripheral blood (AllCells) were thawed into StemSpan Serum-Free Expansion Medium (SFEM, StemCell Technologies) containing 100 ng/mL each of the following cytokines: human stem cell factor (SCF), thrombopoietin (TPO), and flt-3 ligand (FL) (all from Peprotech). […]

“GCUGCCGCCCAGUGGGACUU (chemistry not given here) [CCR5-U43, S. pyogenes gRNA targeting CCR5; delivered as U6-promoter plasmid with Cas9 plasmid]” was tested, and the “Fold change in cell number of CD34^+ cells (96 hours vs. time 0 cell number)” value [1] was 0.6, the “viability (7-AAD^− AnnexinV^-)” value [2] was over 93% and the “co-expression of CD34 and CD90” value [3] was “maintained co-expression of CD34 and CD90”. The “Number of colony forming units: E” value (CD34^+ HSCs) was 18 colony forming units per 1500 CD34^+ HSCs plated, the “Number of colony forming units: G” value (CD34^+ HSCs) was 22 colony forming units per 1500 CD34^+ HSCs plated and the “Number of colony forming units: GEMM” value (CD34^+ HSCs) was 1 colony forming units per 1500 CD34^+ HSCs plated. For the same sequence, the “Number of colony forming units: GM” value (CD34^+ HSCs) was 1 colony forming units per 1500 CD34^+ HSCs plated, the “Number of colony forming units: M” value (CD34^+ HSCs) was 6 colony forming units per 1500 CD34^+ HSCs plated and the “Number of colony forming units: Total” value (CD34^+ HSCs) was 28 colony forming units per 1500 CD34^+ HSCs plated.
